Experimental data as given in ChEMBL document CHEMBL4145553, “Design, synthesis, and biological evaluation of novel amide and hydrazide based thioether analogs targeting Histone deacteylase (HDAC) enzymes” (Eur J Med Chem, 2018).
Activity calls are given as the source filed them. The calls are words filed in the database; no cut-off is given here.

What was measured:
[1] = tested on: A549; assay: Growth inhibition of human A549/ATCC cells assessed as cell growth at 10^-8 M incubated for 48 hrs by sulforhodamine B assay relative to control; format: functional; conditions: A549, 48 h, read-out: Activity
[2] = tested on: LOX IMVI; assay: Growth inhibition of human LOXIMVI cells assessed as cell growth at 10^-8 M incubated for 48 hrs by sulforhodamine B assay relative to control; format: functional; conditions: read-out: Activity
[3] = tested on: OVCAR-8; assay: Growth inhibition of human OVCAR8 cells assessed as cell growth at 10^-8 M incubated for 48 hrs by sulforhodamine B assay relative to control; format: functional; conditions: OVCAR-8, 48 h, read-out: Activity
[4] = tested on: UO-31; assay: Growth inhibition of human UO31 cells assessed as cell growth at 10^-8 M incubated for 48 hrs by sulforhodamine B assay relative to control; format: functional; conditions: UO-31, 48 h, read-out: Activity
[5] = tested on: T47D; assay: Growth inhibition of human T47D cells assessed as cell growth at 10^-8 M incubated for 48 hrs by sulforhodamine B assay relative to control; format: functional; conditions: read-out: Activity
[6] = tested on: CCRF-CEM; assay: Growth inhibition of human CCRF-CEM cells assessed as cell growth at 10^-7 M incubated for 48 hrs by sulforhodamine B assay relative to control; format: functional; conditions: read-out: Activity
[7] = tested on: A549; assay: Growth inhibition of human A549/ATCC cells assessed as cell growth at 10^-7 M incubated for 48 hrs by sulforhodamine B assay relative to control; format: functional; conditions: A549, 48 h, read-out: Activity
[8] = tested on: HCT-116; assay: Growth inhibition of human HCT116 cells assessed as cell growth at 10^-7 M incubated for 48 hrs by sulforhodamine B assay relative to control; format: functional; conditions: HCT-116, 48 h, read-out: Activity
[9] = tested on: OVCAR-5; assay: Growth inhibition of human OVCAR5 cells assessed as cell growth at 10^-7 M incubated for 48 hrs by sulforhodamine B assay relative to control; format: functional; conditions: OVCAR-5, 48 h, read-out: Activity
[10] = tested on: MDA-MB-231; assay: Growth inhibition of human MDA-MB-231 cells assessed as cell growth at 10^-7 M incubated for 48 hrs by sulforhodamine B assay relative to control; format: functional; conditions: MDA-MB-231, 48 h, read-out: Activity
[11] = tested on: Hs-578T; assay: Growth inhibition of human Hs 578T cells assessed as cell growth at 10^-7 M incubated for 48 hrs by sulforhodamine B assay relative to control; format: functional; conditions: read-out: Activity
[12] = tested on: BT-549; assay: Growth inhibition of human BT549 cells assessed as cell growth at 10^-7 M incubated for 48 hrs by sulforhodamine B assay relative to control; format: functional; conditions: BT-549, 48 h, read-out: Activity
[13] = tested on: SK-MEL-5; assay: Growth inhibition of human SK-MEL-5 cells assessed as cell growth at 10^-6 M incubated for 48 hrs by sulforhodamine B assay relative to control; format: functional; conditions: SK-MEL-5, 48 h, read-out: Activity
[14] = tested on: UACC-257; assay: Growth inhibition of human UACC257 cells assessed as cell growth at 10^-6 M incubated for 48 hrs by sulforhodamine B assay relative to control; format: functional; conditions: UACC-257, 48 h, read-out: Activity
[15] = tested on: OVCAR-8; assay: Growth inhibition of human OVCAR8 cells assessed as cell growth at 10^-6 M incubated for 48 hrs by sulforhodamine B assay relative to control; format: functional; conditions: OVCAR-8, 48 h, read-out: Activity
[16] = tested on: BT-549; assay: Growth inhibition of human BT549 cells assessed as cell growth at 10^-6 M incubated for 48 hrs by sulforhodamine B assay relative to control; format: functional; conditions: BT-549, 48 h, read-out: Activity
[17] = tested on: MDA-MB-468; assay: Growth inhibition of human MDA-MB-468 cells assessed as cell growth at 10^-6 M incubated for 48 hrs by sulforhodamine B assay relative to control; format: functional; conditions: MDA-MB-468, 48 h, read-out: Activity
[18] = tested on: CCRF-CEM; assay: Growth inhibition of human CCRF-CEM cells assessed as cell growth at 10^-5 M incubated for 48 hrs by sulforhodamine B assay relative to control; format: functional; conditions: read-out: Activity
[19] = tested on: EKVX; assay: Growth inhibition of human EKVX cells assessed as cell growth at 10^-5 M incubated for 48 hrs by sulforhodamine B assay relative to control; format: functional; conditions: read-out: Activity
[20] = tested on: NCI-H226; assay: Growth inhibition of human NCI-H226 cells assessed as cell growth at 10^-5 M incubated for 48 hrs by sulforhodamine B assay relative to control; format: functional; conditions: NCI-H226, 48 h, read-out: Activity
[21] = tested on: NCI-H522; assay: Growth inhibition of human NCI-H522 cells assessed as cell growth at 10^-5 M incubated for 48 hrs by sulforhodamine B assay relative to control; format: functional; conditions: NCI-H522, 48 h, read-out: Activity
[22] = tested on: RXF 393; assay: Growth inhibition of human RXF393 cells assessed as cell growth at 10^-5 M incubated for 48 hrs by sulforhodamine B assay relative to control; format: functional; conditions: RXF 393, 48 h, read-out: Activity
[23] = tested on: MDA-MB-468; assay: Growth inhibition of human MDA-MB-468 cells assessed as cell growth at 10^-5 M incubated for 48 hrs by sulforhodamine B assay relative to control; format: functional; conditions: MDA-MB-468, 48 h, read-out: Activity
[24] = tested on: DU-145; assay: Growth inhibition of human DU145 cells assessed as cell growth at 10^-4 M incubated for 48 hrs by sulforhodamine B assay relative to control; format: functional; conditions: DU-145, 48 h, read-out: Activity
[25] = tested on: T47D; assay: Growth inhibition of human T47D cells assessed as cell growth at 10^-4 M incubated for 48 hrs by sulforhodamine B assay relative to control; format: functional; conditions: read-out: Activity
[26] = tested on: NCI-H322M; assay: Growth inhibition of human NCI-H322M cells incubated for 48 hrs by sulforhodamine B assay; format: functional
[27] = tested on: NCI-H522; assay: Growth inhibition of human NCI-H522 cells incubated for 48 hrs by sulforhodamine B assay; format: functional; conditions: NCI-H522, 48 h
[28] = tested on: HCT-116; assay: Growth inhibition of human HCT116 cells incubated for 48 hrs by sulforhodamine B assay; format: functional; conditions: HCT-116, 48 h
[29] = tested on: SNB-75; assay: Growth inhibition of human SNB75 cells incubated for 48 hrs by sulforhodamine B assay; format: functional; conditions: SNB-75, 48 h
[30] = tested on: Malme-3M; assay: Growth inhibition of human MALME-3M cells incubated for 48 hrs by sulforhodamine B assay; format: functional
[31] = tested on: HL-60; assay: Induction of apoptosis in human HL60 cells assessed as live cells by propidium iodide/Annexin V staining based flow cytometry (reference value: 96.94%); format: functional
[32] = tested on: HL-60; assay: Induction of apoptosis in human HL60 cells assessed as increase in gammaH2ax expression by qRT-PCR method; format: functional, cell-based
[33] = read-out: LC50 (the source's name)
[34] = read-out: pLC50 (the source's name) (converted)

For `CCS/C(Nc1ccccc1)=C(\C#N)C(=O)Nc1ccc(OC)cc1`, the growth at 0.01 µM [1] was 95%, the growth at 0.01 µM [2] was 100% and the growth at 0.01 µM [3] was 100%. The growth at 0.01 µM [4] was 93%, the growth at 0.01 µM [5] was 99% and the growth at 0.1 µM [6] was 83%. It also gave a growth at 0.1 µM [7] of 94%, a growth at 0.1 µM [8] of 89% and a growth at 0.1 µM [9] of 95%. For the same compound, the growth at 0.1 µM [10] was 94%, the growth at 0.1 µM [11] was 96% and the growth at 0.1 µM [12] was 89%. For the same compound, the growth at 1 µM [13] was 80%, the growth at 1 µM [14] was 93% and the growth at 1 µM [15] was 98%. For the same compound, the growth at 1 µM [16] was 74%, the growth at 1 µM [17] was 60% and the growth at 10 µM [18] was 11%. The growth at 10 µM [19] was 31%, the growth at 10 µM [20] was 37% and the growth at 10 µM [21] was -1%. For the same compound, the growth at 10 µM [22] was -10%, the growth at 10 µM [23] was -9% and the growth at 100 µM [24] was -6%. The growth at 100 µM [25] was 3%, the GI50 ([26]; read-out: GI50) was 5.81 µM and the CC50 [26, 33] was > 100 µM. The TGI ([26]; read-out: TGI) was > 100 µM, the GI50 ([26]; read-out: pGI50 (converted)) was 5.75 µM and the CC50 [26, 34] was > 100 µM. The TGI ([26]; read-out: pTGI) was > 100 µM, the GI50 ([27]; read-out: GI50) was 2.21 µM and the CC50 [27, 33] was > 100 µM. For the same compound, the TGI ([27]; read-out: TGI) was 9.68 µM, the GI50 ([27]; read-out: pGI50 (converted)) was 2.19 µM and the CC50 [27, 34] was > 100 µM. The TGI ([27]; read-out: pTGI (converted)) was 9.77 µM, the GI50 ([28]; read-out: GI50) was 1.95 µM and the CC50 [28, 33] was > 100 µM. The TGI ([28]; read-out: TGI) was 16.4 µM, the GI50 ([28]; read-out: pGI50 (converted)) was 1.95 µM and the CC50 [28, 34] was > 100 µM. The TGI ([28]; read-out: pTGI (converted)) was 16.6 µM, the GI50 ([29]; read-out: GI50) was 2.13 µM and the CC50 [29, 33] was > 100 µM. The TGI ([29]; read-out: TGI) was 7.21 µM, the GI50 ([29]; read-out: pGI50 (converted)) was 2.14 µM and the CC50 [29, 34] was > 100 µM. The TGI ([29]; read-out: pTGI (converted)) was 7.24 µM, the GI50 ([30]; read-out: GI50) was 47.3 µM and the CC50 [30, 33] was > 100 µM. The TGI ([30]; read-out: TGI) was > 100 µM, the GI50 ([30]; read-out: pGI50 (converted)) was 46.8 µM and the CC50 [30, 34] was > 100 µM. For the same compound, the TGI ([30]; read-out: pTGI) was > 100 µM, the Activity [31] was 84% and the Activity [32] was “Active”.
`CCS/C(Nc1ccccc1)=C(\C#N)C(=O)N/N=C\c1ccc(Cl)cc1Cl` showed a growth at 0.01 µM [1] of 97%, a growth at 0.01 µM [2] of 95% and a growth at 0.01 µM [3] of 94%. For the same compound, the growth at 0.01 µM [4] was 94%, the growth at 0.01 µM [5] was 102% and the growth at 0.1 µM [6] was 95%. It also gave a growth at 0.1 µM [7] of 92%, a growth at 0.1 µM [8] of 92% and a growth at 0.1 µM [9] of 96%. For the same compound, the growth at 0.1 µM [10] was 97%, the growth at 0.1 µM [11] was 92% and the growth at 0.1 µM [12] was 87%. For the same compound, the growth at 1 µM [13] was 81%, the growth at 1 µM [14] was 92% and the growth at 1 µM [15] was 99%. It also gave a growth at 1 µM [16] of 76%, a growth at 1 µM [17] of 88% and a growth at 10 µM [18] of 16%. The growth at 10 µM [19] was 35%, the growth at 10 µM [20] was 27% and the growth at 10 µM [21] was -2%. The growth at 10 µM [22] was -5%, the growth at 10 µM [23] was -3% and the growth at 100 µM [24] was 8%. For the same compound, the growth at 100 µM [25] was 17%, the GI50 ([26]; read-out: GI50) was 6.87 µM and the CC50 [26, 33] was > 100 µM. The TGI ([26]; read-out: TGI) was > 100 µM, the GI50 ([26]; read-out: pGI50 (converted)) was 6.92 µM and the CC50 [26, 34] was > 100 µM. For the same compound, the TGI ([26]; read-out: pTGI) was > 100 µM, the GI50 ([27]; read-out: GI50) was 1.84 µM and the CC50 [27, 33] was > 100 µM. For the same compound, the GI50 ([27]; read-out: pGI50 (converted)) was 1.82 µM, the CC50 [27, 34] was > 100 µM and the GI50 ([28]; read-out: GI50) was 2.99 µM. The CC50 [28, 33] was > 100 µM, the TGI ([28]; read-out: TGI) was > 100 µM and the GI50 ([28]; read-out: pGI50 (converted)) was 3.02 µM. The CC50 [28, 34] was > 100 µM, the TGI ([28]; read-out: pTGI (converted)) was > 100 µM and the GI50 ([29]; read-out: GI50) was 2.15 µM. For the same compound, the CC50 [29, 33] was > 100 µM, the TGI ([29]; read-out: TGI) was 9.37 µM and the GI50 ([29]; read-out: pGI50 (converted)) was 2.14 µM. For the same compound, the CC50 [29, 34] was > 100 µM, the TGI ([29]; read-out: pTGI (converted)) was 9.33 µM and the GI50 ([30]; read-out: GI50) was 9.3 µM. The CC50 [30, 33] was > 100 µM, the TGI ([30]; read-out: TGI) was > 100 µM and the GI50 ([30]; read-out: pGI50 (converted)) was 9.33 µM. The CC50 [30, 34] was > 100 µM, the TGI ([30]; read-out: pTGI) was > 100 µM and the Activity [31] was 79.88%. The Activity [32] was “Active”.
